Assay results from article PMC11521937, “Expression and characterization of pantothenate energy‐coupling factor transporters as an anti‐infective drug target” (Protein Science : A Publication of the Protein Society, 2024).
Where two headings read alike, the source gives them in different places.

Legend:
Format in all cases: cell-based, human
[1] = In vitro MTT cytotoxicity assay, A549; settings: human, read-out: Percent (%) cell viability at 100 μM, A549 cells
Experimental: (§1) In vitro cytotoxicity evaluation […]
(§2) with minor modifications, which will be detailed below.
(§3) To obtain information regarding the toxicity of our compounds, their impact on the viability of human cells was investigated. HepG2 and A549 cells (2 × 10^4 cells per well) were seeded in 96-well, flat-bottomed culture plates in 100 µL culture medium (DMEM containing 10% fetal calve serum, 1% penicillin-streptomycin). Twenty-four hours after seeding the cells, medium was removed and replaced by medium containing test compounds in a final DMSO concentration of 1%. Compounds were tested in duplicates at a single concentration in 1% DMSO/medium. Epirubicin and doxorubicin were used as positive controls in serial dilutions starting from 10 µM, and rifampicin was used as a negative control (at 100 µM). The living cell mass was determined 48 h after treatment with compounds by adding 0.1 volumes of 3-(4,5-dimethylthiazol-2-yl)-2,5-diphenyltetrazolium bromide (MTT) solution (5 mg/mL sterile PBS) (Sigma, St. Louis, MO) to the wells. After incubating the cells for 30 min at 37 °C (atmosphere containing 5% CO2), medium was removed and MTT crystals were dissolved in 75 µL of a solution containing 10% SDS and 0.5% acetic acid in DMSO. The optical density (OD) of the samples was determined photometrically at 570 nm in a PHERAstar Omega plate reader (BMG labtech, Ortenberg, Germany). To obtain percent viability for each sample, their ODs were related to those of DMSO controls. At least two independent measurements were performed for each compound. The calculation of IC50 was performed using the nonlinear regression function of GraphPad Prism 10 (GraphPad Software, San Diego, CA, USA). […]

HepG2 cells = experiment: In vitro MTT cytotoxicity assay, HepG2; settings: 48 h
Experimental: as §1, §2, §3

A549 cells = experiment: In vitro MTT cytotoxicity assay, A549; settings: 48 h, 100 µM
Experimental: as §1, §2, §3

SMILES: O=C(O)c1cccc(NCc2ccc(-c3ccc(Cl)cc3)o2)c1 [Compound 4]
- viability at 48 h, 100 µM ([1]; A549 cells): 80 ± 10%

SMILES: O=C(O)c1cccc(NCc2ccc(-c3ccccc3Cl)o2)c1 [Compound 6]
- Percent (%) cell viability at 100 μM, HepG2 cells (HepG2 cells): non‐toxic
- viability at 48 h, 100 µM ([1]; A549 cells): 103 ± 7%

SMILES: CC(C)(C)OC(=O)Nc1ccc(OCc2cccc3ccccc23)cc1C(=O)O [Compound 3]
- viability at 48 h, 100 µM [1]: 86 ± 11%

SMILES: O=C(O)c1cc(OCc2ccc(Br)c3ccccc23)ccc1O [Compound 2]
- Percent (%) cell viability at 100 μM, A549 cells (A549 cells): 124 ± 15%

SMILES: O=C(O)c1cc(OCc2cccc3ccccc23)ccc1O [Compound 1]
- viability at 48 h, 100 µM [1]: > 100%
- Percent (%) cell viability at 100 μM, A549 cells (A549 cells): 111 ± 6%

SMILES: O=C(O)c1cccc(NCc2ccc(-c3cccc(Cl)c3)o2)c1 [Compound 5]
- Percent (%) cell viability at 100 μM, HepG2 cells (HepG2 cells): non‐toxic
- viability at 48 h, 100 µM ([1]; A549 cells): 102 ± 17%
